# Laboratory results reported in ChEMBL document CHEMBL1201861, “Genomics of Drug Sensitity in Cancer screening data, Wellcome Trust Sanger Institute”.
# Test system: RO82-W-1;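 also: growth inhibition of human RO82-W-1 cells, measured with a cell viability assay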
# Assay: cells
# Format: functional, cell-based, Homo sapiens
# Conditions: Homo sapiens, RO82-W-1
row,Compound,IC50 [µM]
1,O=C(O)c1ccc(-c2c[nH]c3ncc(-c4ccccc4)cc23)cc1C1CCCC1 [GSK-650394],> 16

# Test system: HSC-2;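 also: growth inhibition of human HSC-2 cells, read out by a cell viability assay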
# Assay: cells
# Format: functional, cell-based, Homo sapiens
# Conditions: Homo sapiens, HSC-2
# Description: SANGER: Inhibition of human HSC-2 cell growth in a cell viability assay.
row,Compound,IC50 [µM]
1,O=C(O)c1ccc(-c2c[nH]c3ncc(-c4ccccc4)cc23)cc1C1CCCC1 [GSK-650394],> 16

# Test system: NCI-H596;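 also: growth inhibition of NCI-H596 cells, read out with a cell viability assay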
# Assay: cells
# Format: functional, cell-based, Homo sapiens
# Conditions: Homo sapiens, NCI-H596
# Description: SANGER: Inhibition of human NCI-H596 cell growth in a cell viability assay.
row,Compound,IC50 [µM]
1,O=C(O)c1ccc(-c2c[nH]c3ncc(-c4ccccc4)cc23)cc1C1CCCC1 [GSK-650394],> 16

# Test system: NCI-H1573;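 also: growth inhibition of NCI-H1573 cells, read out with a cell viability assay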
# Assay: cells
# Format: functional, cell-based, Homo sapiens
# Conditions: Homo sapiens, NCI-H1573
# Description: SANGER: Inhibition of human NCI-H1573 cell growth in a cell viability assay.
row,Compound,IC50 [µM]
1,O=C(O)c1ccc(-c2c[nH]c3ncc(-c4ccccc4)cc23)cc1C1CCCC1 [GSK-650394],> 16

# Test system: LOUCY;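 also: growth inhibition of human LOUCY cells, read out with a cell viability assay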
# Assay: cells
# Format: functional, cell-based, Homo sapiens
# Conditions: Homo sapiens, LOUCY
# Description: SANGER: Inhibition of human LOUCY cell growth in a cell viability assay.
row,Compound,IC50 [µM]
1,O=C(O)c1ccc(-c2c[nH]c3ncc(-c4ccccc4)cc23)cc1C1CCCC1 [GSK-650394],> 16

# Test system: SAS;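 also: growth inhibition of SAS cells, read out with a cell viability assay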
# Assay: cells
# Format: functional, cell-based, Homo sapiens
# Conditions: Homo sapiens, SAS
# Description: SANGER: Inhibition of human SAS cell growth in a cell viability assay.
row,Compound,IC50 [µM]
1,O=C(O)c1ccc(-c2c[nH]c3ncc(-c4ccccc4)cc23)cc1C1CCCC1 [GSK-650394],> 16

# Test system: RMG-I;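 also: growth inhibition of human RMG-I cells, read out with a cell viability assay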
# Assay: cells
# Format: functional, cell-based, Homo sapiens
# Conditions: Homo sapiens, RMG-I
# Description: SANGER: Inhibition of human RMG-I cell growth in a cell viability assay.
row,Compound,IC50 [µM]
1,O=C(O)c1ccc(-c2c[nH]c3ncc(-c4ccccc4)cc23)cc1C1CCCC1 [GSK-650394],> 16

# Test system: MFE-280;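 also: growth inhibition of MFE-280 cells, determined with a cell viability readout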
# Assay: cells
# Format: functional, cell-based, Homo sapiens
# Conditions: Homo sapiens, MFE-280
# Description: SANGER: Inhibition of human MFE-280 cell growth in a cell viability assay.
row,Compound,IC50 [µM]
1,O=C(O)c1ccc(-c2c[nH]c3ncc(-c4ccccc4)cc23)cc1C1CCCC1 [GSK-650394],> 16

# Test system: DG-75;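 also: growth inhibition of DG-75 cells, read out with a cell viability assay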
# Assay: cells
# Format: functional, cell-based, Homo sapiens
# Conditions: Homo sapiens, DG-75
# Description: SANGER: Inhibition of human DG-75 cell growth in a cell viability assay.
row,Compound,IC50 [µM]
1,O=C(O)c1ccc(-c2c[nH]c3ncc(-c4ccccc4)cc23)cc1C1CCCC1 [GSK-650394],> 16

# Test system: KARPAS-422
# Assay: cells
# Format: functional, cell-based, Homo sapiens
# Conditions: Homo sapiens, KARPAS-422
# Description: SANGER: Inhibition of human KARPAS-422 cell growth in a cell viability assay.
row,Compound,IC50 [µM]
1,O=C(O)c1ccc(-c2c[nH]c3ncc(-c4ccccc4)cc23)cc1C1CCCC1 [GSK-650394],> 16

# Test system: NCI-H661;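 also: cell viability assay read-out, IC50 being the concentration that inhibits growth of the cells by half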
# Assay: cells
# Format: functional, cell-based, Homo sapiens
# Conditions: Homo sapiens, NCI-H661
# Description: SANGER: Inhibition of human NCI-H661 cell growth in a cell viability assay.
row,Compound,IC50 [µM]
1,O=C(O)c1ccc(-c2c[nH]c3ncc(-c4ccccc4)cc23)cc1C1CCCC1 [GSK-650394],> 16

# Test system: COR-L105
# Assay: cells
# Format: functional, cell-based, Homo sapiens
# Conditions: Homo sapiens, COR-L105
# Description: SANGER: Inhibition of human COR-L105 cell growth in a cell viability assay.
row,Compound,IC50 [µM]
1,O=C(O)c1ccc(-c2c[nH]c3ncc(-c4ccccc4)cc23)cc1C1CCCC1 [GSK-650394],> 16

# Test system: HT-1376
# Assay: cells
# Format: functional, cell-based, Homo sapiens
# Conditions: Homo sapiens, HT-1376
# Description: SANGER: Inhibition of human HT-1376 cell growth in a cell viability assay.
row,Compound,IC50 [µM]
1,O=C(O)c1ccc(-c2c[nH]c3ncc(-c4ccccc4)cc23)cc1C1CCCC1 [GSK-650394],> 16

# Test system: P12-Ichikawa
# Assay: cells
# Format: functional, cell-based, Homo sapiens
# Conditions: Homo sapiens, P12-Ichikawa
row,Compound,IC50 [µM]
1,O=C(O)c1ccc(-c2c[nH]c3ncc(-c4ccccc4)cc23)cc1C1CCCC1 [GSK-650394],> 16

# Test system: UMC-11;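 also: growth inhibition of UMC-11 cells, read out with a cell viability assay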
# Assay: cells
# Format: functional, cell-based, Homo sapiens
# Conditions: Homo sapiens, UMC-11
# Description: SANGER: Inhibition of human UMC-11 cell growth in a cell viability assay.
row,Compound,IC50 [µM]
1,O=C(O)c1ccc(-c2c[nH]c3ncc(-c4ccccc4)cc23)cc1C1CCCC1 [GSK-650394],> 16

# Test system: SK-N-AS;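 also: growth inhibition of human SK-N-AS cells, measured with a cell viability assay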
# Assay: cells
# Format: functional, cell-based, Homo sapiens
# Conditions: Homo sapiens, SK-N-AS
# Description: SANGER: Inhibition of human SK-N-AS cell growth in a cell viability assay.
row,Compound,IC50 [µM]
1,O=C(O)c1ccc(-c2c[nH]c3ncc(-c4ccccc4)cc23)cc1C1CCCC1 [GSK-650394],> 16

# Test system: BEN;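 also: growth inhibition of the BEN cell line, read out with a cell viability assay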
# Assay: cells
# Format: functional, cell-based, Homo sapiens
# Conditions: Homo sapiens, BEN
# Description: SANGER: Inhibition of human BEN cell growth in a cell viability assay.
row,Compound,IC50 [µM]
1,O=C(O)c1ccc(-c2c[nH]c3ncc(-c4ccccc4)cc23)cc1C1CCCC1 [GSK-650394],> 16

# Test system: NCI-H2009;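 also: cell viability assay measuring inhibition of NCI-H2009 cell growth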
# Assay: cells
# Format: functional, cell-based, Homo sapiens
# Conditions: Homo sapiens, NCI-H2009
# Description: SANGER: Inhibition of human NCI-H2009 cell growth in a cell viability assay.
row,Compound,IC50 [µM]
1,O=C(O)c1ccc(-c2c[nH]c3ncc(-c4ccccc4)cc23)cc1C1CCCC1 [GSK-650394],3.76

# Test system: AGS;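 also: growth inhibition of AGS cells, determined with a cell viability assay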
# Assay: cells
# Format: functional, cell-based, Homo sapiens
# Conditions: Homo sapiens, AGS
# Description: SANGER: Inhibition of human AGS cell growth in a cell viability assay.
row,Compound,IC50 [µM]
1,O=C(O)c1ccc(-c2c[nH]c3ncc(-c4ccccc4)cc23)cc1C1CCCC1 [GSK-650394],8.56

# Test system: SNU-16;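 also: growth inhibition of human SNU-16 cells, determined with a cell viability readout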
# Assay: cells
# Format: functional, cell-based, Homo sapiens
# Conditions: Homo sapiens, SNU-16
# Description: SANGER: Inhibition of human NCI-SNU-16 cell growth in a cell viability assay.
row,Compound,IC50 [µM]
1,O=C(O)c1ccc(-c2c[nH]c3ncc(-c4ccccc4)cc23)cc1C1CCCC1 [GSK-650394],> 16

# Test system: T84;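 also: growth inhibition measured with a cell viability readout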
# Assay: cells
# Format: functional, cell-based, Homo sapiens
# Conditions: Homo sapiens, T84
# Description: SANGER: Inhibition of human T84 cell growth in a cell viability assay.
row,Compound,IC50 [µM]
1,O=C(O)c1ccc(-c2c[nH]c3ncc(-c4ccccc4)cc23)cc1C1CCCC1 [GSK-650394],2.6

# Test system: CAL-72;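 also: cell viability assay measuring inhibition of proliferation in the CAL-72 cell line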
# Assay: cells
# Format: functional, cell-based, Homo sapiens
# Conditions: Homo sapiens, CAL-72
# Description: SANGER: Inhibition of human CAL-72 cell growth in a cell viability assay.
row,Compound,IC50 [µM]
1,O=C(O)c1ccc(-c2c[nH]c3ncc(-c4ccccc4)cc23)cc1C1CCCC1 [GSK-650394],> 16

# Test system: HCT-15;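 also: cell viability readout, IC50 reflecting suppression of HCT-15 cell growth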
# Assay: cells
# Format: functional, cell-based, Homo sapiens
# Conditions: Homo sapiens, HCT-15
# Description: SANGER: Inhibition of human HCT-15 cell growth in a cell viability assay.
row,Compound,IC50 [µM]
1,O=C(O)c1ccc(-c2c[nH]c3ncc(-c4ccccc4)cc23)cc1C1CCCC1 [GSK-650394],3.63

# Test system: NCI-H810;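 also: IC50 reflects inhibition of cancer cell line growth, read out with a cell viability assay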
# Assay: cells
# Format: functional, cell-based, Homo sapiens
# Conditions: Homo sapiens, NCI-H810
# Description: SANGER: Inhibition of human NCI-H810 cell growth in a cell viability assay.
row,Compound,IC50 [µM]
1,O=C(O)c1ccc(-c2c[nH]c3ncc(-c4ccccc4)cc23)cc1C1CCCC1 [GSK-650394],> 16

# Test system: AU565;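 also: cell viability assay measuring growth inhibition of human AU565 cells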
# Assay: cells
# Format: functional, cell-based, Homo sapiens
# Conditions: Homo sapiens, AU565
# Description: SANGER: Inhibition of human AU565 cell growth in a cell viability assay.
row,Compound,IC50 [µM]
1,O=C(O)c1ccc(-c2c[nH]c3ncc(-c4ccccc4)cc23)cc1C1CCCC1 [GSK-650394],> 16

# Test system: BFTC-905
# Assay: cells
# Format: functional, cell-based, Homo sapiens
# Conditions: Homo sapiens, BFTC-905
# Description: SANGER: Inhibition of human BFTC-905 cell growth in a cell viability assay.
row,Compound,IC50 [µM]
1,O=C(O)c1ccc(-c2c[nH]c3ncc(-c4ccccc4)cc23)cc1C1CCCC1 [GSK-650394],0.785

# Test system: HT55;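 also: cell viability readout measuring growth inhibition of human HT55 cells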
# Assay: cells
# Format: functional, cell-based, Homo sapiens
# Conditions: Homo sapiens, HT55
# Description: SANGER: Inhibition of human HT55 cell growth in a cell viability assay.
row,Compound,IC50 [µM]
1,O=C(O)c1ccc(-c2c[nH]c3ncc(-c4ccccc4)cc23)cc1C1CCCC1 [GSK-650394],> 16

# Test system: NCI-H441;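 also: growth inhibition of NCI-H441 cells, read out with a cell viability assay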
# Assay: cells
# Format: functional, cell-based, Homo sapiens
# Conditions: Homo sapiens, NCI-H441
# Description: SANGER: Inhibition of human NCI-H441 cell growth in a cell viability assay.
row,Compound,IC50 [µM]
1,O=C(O)c1ccc(-c2c[nH]c3ncc(-c4ccccc4)cc23)cc1C1CCCC1 [GSK-650394],> 16

# Test system: RPMI-7951
# Assay: cells
# Format: functional, cell-based, Homo sapiens
# Conditions: Homo sapiens, RPMI-7951
# Description: SANGER: Inhibition of human RPMI-7951 cell growth in a cell viability assay.
row,Compound,IC50 [µM]
1,O=C(O)c1ccc(-c2c[nH]c3ncc(-c4ccccc4)cc23)cc1C1CCCC1 [GSK-650394],> 16

# Test system: NCI-H1792;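 also: growth inhibition of human NCI-H1792 cells, read out as cell viability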
# Assay: cells
# Format: functional, cell-based, Homo sapiens
# Conditions: Homo sapiens, NCI-H1792
# Description: SANGER: Inhibition of human NCI-H1792 cell growth in a cell viability assay.
row,Compound,IC50 [µM]
1,O=C(O)c1ccc(-c2c[nH]c3ncc(-c4ccccc4)cc23)cc1C1CCCC1 [GSK-650394],> 16

# Test system: HT-29;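 also: growth inhibition of human HT-29 cells, read out by a cell viability assay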
# Assay: cells
# Format: functional, cell-based, Homo sapiens
# Conditions: Homo sapiens, HT-29
# Description: SANGER: Inhibition of human HT-29 cell growth in a cell viability assay.
row,Compound,IC50 [µM]
1,O=C(O)c1ccc(-c2c[nH]c3ncc(-c4ccccc4)cc23)cc1C1CCCC1 [GSK-650394],7.27

# Test system: NCI-H2342;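 also: growth inhibition of the cancer cell line, determined with a cell viability assay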
# Assay: cells
# Format: functional, cell-based, Homo sapiens
# Conditions: Homo sapiens, NCI-H2342
# Description: SANGER: Inhibition of human NCI-H2342 cell growth in a cell viability assay.
row,Compound,IC50 [µM]
1,O=C(O)c1ccc(-c2c[nH]c3ncc(-c4ccccc4)cc23)cc1C1CCCC1 [GSK-650394],2.19

# Test system: NCI-H1993;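 also: growth inhibition of the cancer cell line, assessed with a cell viability assay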
# Assay: cells
# Format: functional, cell-based, Homo sapiens
# Conditions: Homo sapiens, NCI-H1993
# Description: SANGER: Inhibition of human NCI-H1993 cell growth in a cell viability assay.
row,Compound,IC50 [µM]
1,O=C(O)c1ccc(-c2c[nH]c3ncc(-c4ccccc4)cc23)cc1C1CCCC1 [GSK-650394],> 16

# Test system: NCI-H1436;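 also: growth suppression of human NCI-H1436 cells, determined with a cell viability readout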
# Assay: cells
# Format: functional, cell-based, Homo sapiens
# Conditions: Homo sapiens, NCI-H1436
# Description: SANGER: Inhibition of human NCI-H1436 cell growth in a cell viability assay.
row,Compound,IC50 [µM]
1,O=C(O)c1ccc(-c2c[nH]c3ncc(-c4ccccc4)cc23)cc1C1CCCC1 [GSK-650394],> 16

# Test system: HLE;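 also: growth inhibition of human HLE cells, read out by a cell viability assay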
# Assay: cells
# Format: functional, cell-based, Homo sapiens
# Conditions: Homo sapiens, HLE
# Description: SANGER: Inhibition of human HLE cell growth in a cell viability assay.
row,Compound,IC50 [µM]
1,O=C(O)c1ccc(-c2c[nH]c3ncc(-c4ccccc4)cc23)cc1C1CCCC1 [GSK-650394],1.43

# Test system: SW1088;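 also: growth inhibition of human SW1088 cells, read out by a cell viability assay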
# Assay: cells
# Format: functional, cell-based, Homo sapiens
# Conditions: Homo sapiens, SW1088
# Description: SANGER: Inhibition of human SW1088 cell growth in a cell viability assay.
row,Compound,IC50 [µM]
1,O=C(O)c1ccc(-c2c[nH]c3ncc(-c4ccccc4)cc23)cc1C1CCCC1 [GSK-650394],> 16

# Test system: UACC-62;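 also: growth inhibition of human UACC-62 cells, read out by a cell viability assay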
# Assay: cells
# Format: functional, cell-based, Homo sapiens
# Conditions: Homo sapiens, UACC-62
# Description: SANGER: Inhibition of human UACC-62 cell growth in a cell viability assay.
row,Compound,IC50 [µM]
1,O=C(O)c1ccc(-c2c[nH]c3ncc(-c4ccccc4)cc23)cc1C1CCCC1 [GSK-650394],> 16

# Test system: CAMA-1;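 also: growth inhibition of CAMA-1 cells, read out with a cell viability assay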
# Assay: cells
# Format: functional, cell-based, Homo sapiens
# Conditions: Homo sapiens, CAMA-1
# Description: SANGER: Inhibition of human CAMA-1 cell growth in a cell viability assay.
row,Compound,IC50 [µM]
1,O=C(O)c1ccc(-c2c[nH]c3ncc(-c4ccccc4)cc23)cc1C1CCCC1 [GSK-650394],> 16

# Test system: SW948;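 also: growth inhibition of SW948 cells, read out with a cell viability assay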
# Assay: cells
# Format: functional, cell-based, Homo sapiens
# Conditions: Homo sapiens, SW948
# Description: SANGER: Inhibition of human SW948 cell growth in a cell viability assay.
row,Compound,IC50 [µM]
1,O=C(O)c1ccc(-c2c[nH]c3ncc(-c4ccccc4)cc23)cc1C1CCCC1 [GSK-650394],> 16

# Test system: NCI-H2122;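 also: growth inhibition of the cells, read out with a cell viability assay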
# Assay: cells
# Format: functional, cell-based, Homo sapiens
# Conditions: Homo sapiens, NCI-H2122
# Description: SANGER: Inhibition of human NCI-H2122 cell growth in a cell viability assay.
row,Compound,IC50 [µM]
1,O=C(O)c1ccc(-c2c[nH]c3ncc(-c4ccccc4)cc23)cc1C1CCCC1 [GSK-650394],3.33

# Test system: SK-LU-1;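 also: cell viability assay measuring growth inhibition of human SK-LU-1 cells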
# Assay: cells
# Format: functional, cell-based, Homo sapiens
# Conditions: Homo sapiens, SK-LU-1
# Description: SANGER: Inhibition of human SK-LU-1 cell growth in a cell viability assay.
row,Compound,IC50 [µM]
1,O=C(O)c1ccc(-c2c[nH]c3ncc(-c4ccccc4)cc23)cc1C1CCCC1 [GSK-650394],3.97

# Test system: BC1 cell line
# Assay: SANGER: Inhibition of human BC-1 cell growth in a cell viability assay.
# Format: functional, cell-based
# Conditions: Homo sapiens, BC1
row,Compound,IC50 [µM]
1,O=C(O)c1ccc(-c2c[nH]c3ncc(-c4ccccc4)cc23)cc1C1CCCC1 [GSK-650394],2.52

# Test system: Calu-3;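 also: growth inhibition of human Calu-3 cells, determined with a cell viability assay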
# Assay: cells
# Format: functional, cell-based, Homo sapiens
# Conditions: Homo sapiens, Calu-3
# Description: SANGER: Inhibition of human Calu-3 cell growth in a cell viability assay.
row,Compound,IC50 [µM]
1,O=C(O)c1ccc(-c2c[nH]c3ncc(-c4ccccc4)cc23)cc1C1CCCC1 [GSK-650394],10.7

# Test system: NCI-H1694;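 also: cell viability assay measuring inhibition of growth in human NCI-H1694 cells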
# Assay: cells
# Format: functional, cell-based, Homo sapiens
# Conditions: Homo sapiens, NCI-H1694
# Description: SANGER: Inhibition of human NCI-H1694 cell growth in a cell viability assay.
row,Compound,IC50 [µM]
1,O=C(O)c1ccc(-c2c[nH]c3ncc(-c4ccccc4)cc23)cc1C1CCCC1 [GSK-650394],> 16

# Test system: JEG-3;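 also: growth inhibition of human JEG-3 cells, read out with a cell viability assay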
# Assay: cells
# Format: functional, cell-based, Homo sapiens
# Conditions: Homo sapiens, JEG-3
# Description: SANGER: Inhibition of human JEG-3 cell growth in a cell viability assay.
row,Compound,IC50 [µM]
1,O=C(O)c1ccc(-c2c[nH]c3ncc(-c4ccccc4)cc23)cc1C1CCCC1 [GSK-650394],> 16
